Converted amounts (≈) assume the structure as drawn. The source made the active and inactive calls. The calls are words filed in the database; no cut-off is given here.
Legend:
Assay type in all cases: functional
[1] = system: Staphylococcus epidermidis; experiment: Antibacterial activity against methicillin sensitive Staphylococcus epidermidis ATCC 12228
[2] = system: Staphylococcus epidermidis; experiment: Antibacterial activity against methicillin sensitive Staphylococcus epidermidis 17-13
[3] = system: Staphylococcus epidermidis; experiment: Antibacterial activity against methicillin resistant Staphylococcus epidermidis 19-1
[4] = system: Staphylococcus epidermidis; experiment: Antibacterial activity against methicillin resistant Staphylococcus epidermidis 19-2
Staphylococcus aureus [5] = experiment: Antibacterial activity against methicillin sensitive Staphylococcus aureus ATCC 29213
Staphylococcus aureus [6] = experiment: Antibacterial activity against methicillin sensitive Staphylococcus aureus 15
Staphylococcus aureus [7] = experiment: Antibacterial activity against methicillin resistant Staphylococcus aureus 20-11
Staphylococcus aureus [8] = experiment: Antibacterial activity against methicillin resistant Staphylococcus aureus ATCC 43300
Staphylococcus aureus [9] = experiment: Antibacterial activity against vancomycin intermediate and methicillin resistant Staphylococcus aureus ATCC 700698
Staphylococcus aureus [10] = experiment: Antibacterial activity against vancomycin intermediate and methicillin resistant Staphylococcus aureus ATCC 700699
Staphylococcus aureus [11] = experiment: Antibacterial activity against methicillin sensitive Staphylococcus aureus 20-12
Staphylococcus aureus [12] = experiment: Antibacterial activity against methicillin sensitive Staphylococcus aureus ATCC 33591
Staphylococcus aureus [13] = experiment: Antibacterial activity against methicillin resistant Staphylococcus aureus 18-2
Enterococcus faecalis [14] = experiment: Antibacterial activity against Vanomycin-resistant Enterococcus faecalis ATCC 51299
Enterococcus faecalis [15] = experiment: Antibacterial activity against Vanomycin-resistant Enterococcus faecalis ATCC 51575
Enterococcus faecium [16] = experiment: Antibacterial activity against Vanomycin-resistant Enterococcus faecium ATCC 700221
Enterococcus faecium [17] = experiment: Antibacterial activity against Vanomycin-resistant Enterococcus faecium ATCC 51559
Enterococcus faecium [18] = experiment: Antibacterial activity against Vanomycin-resistant Enterococcus faecium 15-6

Compound | MIC [1] | MIC [2] | MIC [3] | MIC [4] | MIC (Staphylococcus aureus [5]) | MIC (Staphylococcus aureus [6]) | MIC (Staphylococcus aureus [7]) | MIC (Staphylococcus aureus [8]) | MIC (Staphylococcus aureus [9]) | MIC (Staphylococcus aureus [10]) | MIC (Staphylococcus aureus [11]) | MIC (Staphylococcus aureus [12]) | MIC (Staphylococcus aureus [13]) | MIC (Enterococcus faecalis [14]) | MIC (Enterococcus faecalis [15]) | MIC (Enterococcus faecium [16]) | MIC (Enterococcus faecium [17]) | MIC (Enterococcus faecium [18])
O=C(Nc1ccc2c(c1)OCO2)Nc1ccc(Cl)c(C(F)(F)F)c1 | 22.3 µM (≈ 8 µg/mL) | 22.3 µM (≈ 8 µg/mL) | 22.3 µM (≈ 8 µg/mL) | 22.3 µM (≈ 8 µg/mL) | 44.6 µM (≈ 16 µg/mL) | 22.3 µM (≈ 8 µg/mL) | 44.6 µM (≈ 16 µg/mL) | 357 µM (≈ 128 µg/mL) | 44.6 µM (≈ 16 µg/mL) | 22.3 µM (≈ 8 µg/mL) | – | – | – | – | – | – | – | –
O=C(Nc1ccc(C(F)(F)F)cc1)Nc1ccc(Cl)c(C(F)(F)F)c1 | 20.9 µM (≈ 8 µg/mL) | 20.9 µM (≈ 8 µg/mL) | 10.4 µM (≈ 4 µg/mL) | 10.4 µM (≈ 4 µg/mL) | 20.9 µM (≈ 8 µg/mL) | 10.4 µM (≈ 4 µg/mL) | 20.9 µM (≈ 8 µg/mL) | 20.9 µM (≈ 8 µg/mL) | 20.9 µM (≈ 8 µg/mL) | 10.4 µM (≈ 4 µg/mL) | 20.9 µM (≈ 8 µg/mL) | 10.4 µM (≈ 4 µg/mL) | 10.4 µM (≈ 4 µg/mL) | 41.8 µM (≈ 16 µg/mL) | 20.9 µM (≈ 8 µg/mL) | 41.8 µM (≈ 16 µg/mL) | 41.8 µM (≈ 16 µg/mL) | 20.9 µM (≈ 8 µg/mL)
CNC(=O)c1cc(Oc2ccc(NC(=O)Nc3cccc(C(F)(F)F)c3)cc2)ccn1 | 149 µM (≈ 64 µg/mL) | inactive | 149 µM (≈ 64 µg/mL) | inactive | inactive | 149 µM (≈ 64 µg/mL) | inactive | inactive | inactive | inactive | – | – | – | – | – | – | – | –
CNC(=O)c1cc(Oc2ccc(NC(=O)N3CCN(c4ccc(Cl)c(C(F)(F)F)c4)C3=O)cc2)ccn1 | inactive | inactive | inactive | inactive | inactive | inactive | inactive | inactive | inactive | inactive | inactive | inactive | inactive | – | – | – | – | –
O=C(Nc1ccc(OC(F)F)cc1)Nc1ccc(Cl)c(C(F)(F)F)c1 | 10.5 µM (≈ 4 µg/mL) | 2.63 µM (≈ 1 µg/mL) | 5.25 µM (≈ 2 µg/mL) | 10.5 µM (≈ 4 µg/mL) | 10.5 µM (≈ 4 µg/mL) | 0.66 µM (≈ 0.251 µg/mL) | 0.66 µM (≈ 0.251 µg/mL) | 10.5 µM (≈ 4 µg/mL) | 1.31 µM (≈ 0.499 µg/mL) | 0.66 µM (≈ 0.251 µg/mL) | 10.5 µM (≈ 4 µg/mL) | 10.5 µM (≈ 4 µg/mL) | 5.25 µM (≈ 2 µg/mL) | inactive | inactive | 21 µM (≈ 8 µg/mL) | 21 µM (≈ 8 µg/mL) | 21 µM (≈ 8 µg/mL)
O=C(Nc1ccc(Cl)c(C(F)(F)F)c1)Nc1cc(F)c(F)cc1Cl | 1.3 µM (≈ 0.501 µg/mL) | 0.65 µM (≈ 0.25 µg/mL) | 1.3 µM (≈ 0.501 µg/mL) | 0.65 µM (≈ 0.25 µg/mL) | 1.3 µM (≈ 0.501 µg/mL) | 1.3 µM (≈ 0.501 µg/mL) | 1.3 µM (≈ 0.501 µg/mL) | 1.3 µM (≈ 0.501 µg/mL) | 1.3 µM (≈ 0.501 µg/mL) | 0.65 µM (≈ 0.25 µg/mL) | 1.3 µM (≈ 0.501 µg/mL) | 0.65 µM (≈ 0.25 µg/mL) | 1.3 µM (≈ 0.501 µg/mL) | 10.4 µM (≈ 4 µg/mL) | 10.4 µM (≈ 4 µg/mL) | 5.19 µM (≈ 2 µg/mL) | 5.19 µM (≈ 2 µg/mL) | 2.6 µM (≈ 1 µg/mL)
O=C(Nc1ccc(F)cc1)Nc1ccc(Cl)c(C(F)(F)F)c1 | 6.01 µM (≈ 2 µg/mL) | 6.01 µM (≈ 2 µg/mL) | 6.01 µM (≈ 2 µg/mL) | 6.01 µM (≈ 2 µg/mL) | 12 µM (≈ 4 µg/mL) | 6.01 µM (≈ 2 µg/mL) | 12 µM (≈ 4 µg/mL) | 12 µM (≈ 4 µg/mL) | 12 µM (≈ 4 µg/mL) | 3.01 µM (≈ 1 µg/mL) | 12 µM (≈ 4 µg/mL) | 6.01 µM (≈ 2 µg/mL) | 6.01 µM (≈ 2 µg/mL) | 192 µM (≈ 64 µg/mL) | 192 µM (≈ 64 µg/mL) | 48.1 µM (≈ 16 µg/mL) | 96.2 µM (≈ 32 µg/mL) | 48.1 µM (≈ 16 µg/mL)
CNC(=O)c1cc(Oc2ccc(N3CCN(c4ccc(Cl)c(C(F)(F)F)c4)C3=O)cc2)ccn1 | inactive | inactive | inactive | inactive | inactive | inactive | inactive | inactive | inactive | inactive | – | – | – | – | – | – | – | –
CNC(=O)c1cc(Oc2ccc(NC(=O)Nc3cc(C(F)(F)F)ccc3OC)cc2)ccn1 | inactive | inactive | inactive | inactive | inactive | inactive | inactive | inactive | inactive | inactive | – | – | – | – | – | – | – | –
O=C(Nc1ccc(Cl)c(C(F)(F)F)c1)Nc1cc(Cl)ccc1F | 2.72 µM (≈ 0.999 µg/mL) | 2.72 µM (≈ 0.999 µg/mL) | 2.72 µM (≈ 0.999 µg/mL) | 2.72 µM (≈ 0.999 µg/mL) | 2.72 µM (≈ 0.999 µg/mL) | 1.36 µM (≈ 0.499 µg/mL) | 2.72 µM (≈ 0.999 µg/mL) | 2.72 µM (≈ 0.999 µg/mL) | 1.36 µM (≈ 0.499 µg/mL) | 1.36 µM (≈ 0.499 µg/mL) | 2.72 µM (≈ 0.999 µg/mL) | 2.72 µM (≈ 0.999 µg/mL) | 1.36 µM (≈ 0.499 µg/mL) | 5.45 µM (≈ 2 µg/mL) | 5.45 µM (≈ 2 µg/mL) | 2.72 µM (≈ 0.999 µg/mL) | 2.72 µM (≈ 0.999 µg/mL) | 2.72 µM (≈ 0.999 µg/mL)
CNC(=O)c1cc(Oc2ccc(NC(=O)Nc3cc(C(F)(F)F)ccc3Cl)cc2)ccn1 | inactive | inactive | inactive | inactive | inactive | inactive | inactive | inactive | inactive | inactive | – | – | – | – | – | – | – | –
CN(C(=O)Nc1ccc(Cl)c(C(F)(F)F)c1)c1cccc(Cl)c1F | inactive | inactive | inactive | inactive | inactive | inactive | inactive | inactive | inactive | inactive | inactive | inactive | inactive | – | – | – | – | –
O=C1N(c2ccc(O)cc2)CCN1c1ccc(Cl)c(C(F)(F)F)c1 | inactive | inactive | inactive | inactive | inactive | inactive | inactive | inactive | inactive | inactive | – | – | – | – | – | – | – | –
COc1ccc(NC(=O)Nc2ccc(Cl)c(C(F)(F)F)c2)cc1 | inactive | inactive | inactive | inactive | inactive | inactive | inactive | inactive | inactive | inactive | – | – | – | – | – | – | – | –
CN(C(=O)Nc1cccc(Cl)c1F)c1ccc(Cl)c(C(F)(F)F)c1 | inactive | inactive | inactive | inactive | inactive | inactive | inactive | inactive | inactive | inactive | inactive | inactive | inactive | – | – | – | – | –
